From patent publication US4617149A, “Growth hormone release factor analogs” (Eli Lilly and Company, priority 1983, dated 1986)
No end group written: not given here.

Columns and labels:
[1] = stability of hpGRF control solution by HPLC; assay type: physicochemical; conditions: 0.5 mg hpGRF/ml in 0.01M HCl, stored at 22° C., over six hours
Description: One mg of hpGRF, obtained from Peninsula Laboratories, was solubilized in one ml of 0.01M hydrochloric acid ([…]). The solution was divided into four equal aliquots, and each was diluted to a concentration of 0.5 mg hpGRF/ml by the addition of 250 μl of 0.01M HCl. The first aliquot was removed and stored at 22° C. for the duration of the experimentation, to serve as a control. Analysis of the control and the extent of each respective chemical modification with hydrogen peroxide, cyanogen bromide, and methyl iodide, described hereinbelow, was performed by high performance liquid chromatography (HPLC). Quantitation was achieved by peak height measurement at 214 nm, of a symmetrical peak eluting at 10 minutes from a (0.46×25 cm) Zorbax C8, 150 Angstrom reverse phase column, at 45° C. in 0.1M ammonium phosphate buffer, pH 7.2/27.5% 1-propanol, v/v. […] Each modification reaction was quenched by a 5:1 dilution (hpGRF final concentration of 0.1 mg/ml) with addition of two ml of 0.1M methionine/0.01M HCl, pH 3.5. Samples were divided and stored at -20° C. and 4° C. prior to analysis of biological activity.

[2] = test system: pituitary release of growth hormone; conditions: in vitro, cited from earlier work
[3] = peptide obtained by selective S-methylation of glucagon; cited from earlier work

CC[C@H](C)[C@H](NC(=O)[C@H](C)NC(=O)[C@H](CC(=O)O)NC(=O)[C@H](C)NC(=O)[C@@H](N)Cc1ccc(O)cc1)C(=O)N[C@@H](Cc1ccccc1)C(=O)N[C@H](C(=O)N[C@@H](CC(N)=O)C(=O)N[C@@H](CO)C(=O)N[C@@H](Cc1ccc(O)cc1)C(=O)N[C@@H](CCCNC(=N)N)C(=O)N[C@@H](CCCCN)C(=O)N[C@H](C(=O)N[C@@H](CC(C)C)C(=O)NCC(=O)N[C@@H](CCC(N)=O)C(=O)N[C@@H](CC(C)C)C(=O)N[C@@H](CO)C(=O)N[C@@H](C)C(=O)N[C@@H](CCCNC(=N)N)C(=O)N[C@@H](CCCCN)C(=O)N[C@@H](CC(C)C)C(=O)N[C@@H](CC(C)C)C(=O)N[C@@H](CCC(N)=O)C(=O)N[C@@H](CC(=O)O)C(=O)N[C@H](C(=O)N[C@@H](CCSC)C(=O)N[C@@H](CO)C(=O)N[C@@H](CCCNC(=N)N)C(=O)N[C@@H](CCC(N)=O)C(=O)N[C@@H](CCC(N)=O)C(=O)NCC(=O)N[C@@H](CCC(=O)O)C(=O)N[C@@H](CO)C(=O)N[C@@H](CC(N)=O)C(=O)N[C@@H](CCC(N)=O)C(=O)N[C@@H](CCC(=O)O)C(=O)N[C@@H](CCCNC(=N)N)C(=O)NCC(=O)N[C@@H](C)C(=O)N[C@@H](CCCNC(=N)N)C(=O)N[C@@H](C)C(=O)N[C@@H](CCCNC(=N)N)C(=O)N[C@@H](CC(C)C)C(N)=O)[C@@H](C)CC)C(C)C)[C@@H](C)O [hpGRF]
change in HPLC peak elution time or height [1]: no change in peak elution time or height

hpGRF(1-27)-NH2: shortened GRF analog prepared and tested by Rivier et al. (YADAIFTNSYRKVLGQLSARKLLQDIM-NH2; UniProt P01286 32-58, looked up, fragment)
intrinsic activity [2]: full intrinsic activity | potency as % of the potency of hpGRF(1-40)-OH ([2]; relative to hpGRF(1-40)-OH): 10-20%

glucagon
activity as % of the inherent activity of the native hormone [3]: less than 1%
